How the values were obtained:
[1] = Body weight in DNCB-induced AD mice; assay type: in vivo, mouse (female BALB/c); conditions: different-dose treatment groups (5 and 20 g/L topical); DNCB group decreased significantly
Protocol: (§1) Female BALB/c mice (6-8 weeks old) provided by the Comparative Medicine Center of Yangzhou University were used in the experiment. All mice were housed under standard feeding conditions with a 12-hour light-dark cycle, and food and water were freely accessible to them. To establish the atopic dermatitis mouse model, the hair on the back of the mice was removed using a shaver and depilatory cream on Day 0 of the experiment. On Day 1 of the experiment, 100 μL of 20 g/L DNCB was applied to the back and 10 μL to the ear of each mouse to induce atopic dermatitis. On Day 5, 8 and 11 of the experiment, 100 μL of 5 g/L DNCB was applied to the back, 10 μL to the ear of each mouse every morning to challenge atopic dermatitis. The mice were euthanized 24 hours after the final challenge. […]
(§2) The skin of the mice was photographed at the same time every day to record the skin condition, and the body weight of the mice was measured.

IL-4 [2] = assay: qRT-PCR of IL-4 mRNA in ear and dorsal skin of DNCB-induced AD mice; assay type: in vivo, mouse (female BALB/c); conditions: dorsal and ear skin tissues; 5 and 20 g/L topical, compared with DNCB group
Protocol: as §1
(§3) After all the mice were euthanized, an appropriate amount of ear and dorsal skin tissues was harvested. […] Real-time fluorescent quantitative PCR (qRT-PCR) was performed to specifically detect the expression of IL-1β, IL-4, IL-8 and TSLP.

IgE = assay: Determination of IgE in serum (ELISA) of DNCB-induced AD mice; assay type: in vivo, mouse (female BALB/c); conditions: DNCB group 12.65
Protocol: as §1
(§4) Before euthanasia, the mice were anesthetized, and blood samples were collected from the orbit. The blood samples of the mice in each group were analyzed using a fully automatic hematology analyzer. […] The levels of IgE and IL-4 were measured using a double-antibody sandwich enzyme-linked immunosorbent assay, according to the manufacturer's instructions.

IL-1β = assay: qRT-PCR of IL-1β mRNA in ear and dorsal skin of DNCB-induced AD mice; assay type: in vivo, mouse (female BALB/c); conditions: dorsal and ear skin tissues; 5 and 20 g/L topical, compared with DNCB group
Protocol: as §1, §3

DNCB-induced AD mice [3] = assay: Scratching behavior test in DNCB-induced AD mice; assay type: in vivo, mouse (female BALB/c); conditions: DNCB group 107
Protocol: as §1
Prior to the start of the experiment, the mice were allowed to acclimatize to the cages for 1 hour to ensure they could relax and display normal behavioral patterns. During this period, the behavior of the mice scratching the skin of their neck, ears and back with their paws was closely observed and recorded.

TSLP = assay: qRT-PCR of TSLP mRNA in ear and dorsal skin of DNCB-induced AD mice; assay type: in vivo, mouse (female BALB/c); conditions: dorsal and ear skin tissues; 5 and 20 g/L topical, compared with DNCB group
Protocol: as §1, §3

DNCB-induced AD mice [4] = assay: Skin histology, H&E staining, in DNCB-induced AD mice; assay type: in vivo, mouse (female BALB/c); conditions: treatment groups (5 and 20 g/L topical) compared with DNCB group
Protocol: as §1

[5] = prior studies by the inventors (Carbohydrate Polymers 2025, 347:122782; CN 114533756 A); cited from earlier work
[6] = system: mast cells in skin tissues; assay: Skin histology, toluidine blue (TBO) staining, mast cell number; assay type: in vivo, mouse (female BALB/c); conditions: dorsal skin, DNCB group 56
Protocol: as §1

IL-8 = assay: qRT-PCR of IL-8 mRNA in ear and dorsal skin of DNCB-induced AD mice; assay type: in vivo, mouse (female BALB/c); conditions: dorsal and ear skin tissues; 5 and 20 g/L topical, compared with DNCB group
Protocol: as §1, §3

DNCB-induced AD mice [7] = assay: Dorsal skin inflammatory lesions (daily photographs) in DNCB-induced AD mice; assay type: in vivo, mouse (female BALB/c); conditions: treatment groups (5 and 20 g/L topical) compared with DNCB group
Protocol: as §1, §2

DNCB-induced AD mice [8] = assay: Ear and dorsal skin thickness in DNCB-induced AD mice; assay type: in vivo, mouse (female BALB/c); conditions: for average ear skin thickness: DNCB group 0.44; for average dorsal skin thickness: DNCB group 785
Protocol: (§5) Female BALB/c mice (6-8 weeks old) provided by the Comparative Medicine Center of Yangzhou University were used in the experiment. All mice were housed under standard feeding conditions with a 12-hour light-dark cycle, and food and water were freely accessible to them. To establish the atopic dermatitis mouse model, the hair on the back of the mice was removed using a shaver and depilatory cream on Day 0 of the experiment. On Day 1 of the experiment, 100 μL of 20 g/L DNCB was applied to the back and 10 μL to the ear of each mouse to induce atopic dermatitis. On Day 5, 8 and 11 of the experiment, 100 μL of 5 g/L DNCB was applied to the back, 10 μL to the ear of each mouse every morning to challenge atopic dermatitis. The mice were euthanized 24 hours after the final challenge.
(§6) 5 days after the establishment of the atopic dermatitis model, the mice were randomly divided into 4 groups (6 mice per group): a) normal control group (Ctrl group); b) model group (DNCB group), where 100 μL of normal saline was applied to the back and 10 μL to the ear of each mouse every day; c) low-dose group (DNCB+LSRO group), where 100 μL of 5 g/L aqueous solution of sulfated gluco-galactooligosaccharide was applied to the back of each mouse every day, and 10 μL of 5 g/L aqueous solution of sulfated gluco-galactooligosaccharide was applied to the ear of each mouse every day; and d) high-dose group (DNCB+HSRO group), where 100 μL of 20 g/L aqueous solution of sulfated gluco-galactooligosaccharide was applied to the back of each mouse every day, and 10 μL of 20 g/L aqueous solution of sulfated gluco-galactooligosaccharide was applied to the ear of each mouse every day. The skin condition of the mice was recorded daily.
The ear thickness was accurately measured every day using an electronic caliper. Before the mice were euthanized, the thickness of the dorsal skin was measured with a caliper. Three measurements were taken at different positions on the mid-back, near the neck, and near the tail, and the average value was taken as the final measurement result.

[9] = system: HaCaT cells stimulated by TNF-α/IFN-γ; assay: mRNA expression of inflammatory cytokines in HaCaT cells stimulated by TNF-α/IFN-γ; assay type: cell-based, human; conditions: TNF-α/IFN-γ 10 ng/ml 18 h, then 100 or 200 μg/mL for 6 h
Protocol: HaCaT cells were used in the experiment, and their culture was carried out in high-glucose DMEM medium containing 10% fetal bovine serum, 1% streptomycin, and 1% erythromycin. The cells were incubated in a carbon dioxide incubator at 37° C. and passaged using trypsin digestion.
• 1) HaCaT cells were uniformly seeded in 6-well plates at a density of 5×10^5 cells per well. Control group and experimental groups were set up, namely the Ctrl group, TNF-α+IFN-γ group, LSRO+TNF-α+IFN-γ group and HSRO+TNF-α+IFN-γ group. • 2) TNF-α/IFN-γ (10 ng/ml) was added to the TNF-α+IFN-γ, LSRO+TNF-α+IFN-γ and HSRO+TNF-α+IFN-γ groups, respectively, while an equal volume of PBS solution (pH=7.2) was added to the Ctrl group. The plates were shaken crosswise to mix thoroughly, followed by incubation at 37° C. for 18 h in a carbon dioxide incubator. • 3) PBS, PBS, 100 μg/mL and 200 μg/mL sulfated gluco-galactooligosaccharide were added to the Ctrl, TNF-α+IFN-γ, LSRO+TNF-α+IFN-γ and HSRO+TNF-α+IFN-γ groups, respectively. The 6-well plates were placed in a carbon dioxide incubator at 37° C., and the cells were harvested after 6 h of incubation.
HaCaT cells were harvested, followed by RNA extraction and reverse transcription into cDNA. The expression levels of related genes such as IL-4, IL-6 and TNF-α were detected via fluorescent quantitative PCR. […]

DNCB-induced AD mice [10] = assay: Weight of spleens and lymph nodes in DNCB-induced AD mice; assay type: in vivo, mouse (female BALB/c); conditions: for average weight of the lymph nodes: DNCB group 16.4; for average weight of the spleen: DNCB group 221
Protocol: as §5, §6
After the mice were euthanized, the spleens and lymph nodes of the mice in each group were harvested and weighed.

IL-4 [11] = assay: Determination of IL-4 in serum (ELISA) of DNCB-induced AD mice; assay type: in vivo, mouse (female BALB/c); conditions: DNCB group 253.5
Protocol: as §1, §4

[12] = DNCB+HSRO group, 20 g/L topical daily
[13] = DNCB+LSRO group, 5 g/L topical daily

In the case of sulfated gluco-galactooligosaccharide, the “DNCB-induced weight loss (body weight)” value [1] is reported as “not obvious”, the “mRNA level of IL-4” value (IL-4 [2]) is reported as “significantly decreased in a dose-dependent manner” and the “average level of IgE in serum” value (IgE; [12]) is reported as 10.01 µg/mL. For the same substance, the “average level of IgE in serum” value (IgE; [13]) was 10.45 µg/mL, the “mRNA level of IL-1β” value (IL-1β) was “significantly decreased in a dose-dependent manner” and the average scratching frequency (DNCB-induced AD mice [3]; DNCB+HSRO group, 20 g/L aqueous solution topical daily (100 μL back, 10 μL ear)) was 58 times. The average scratching frequency (DNCB-induced AD mice [3]; DNCB+LSRO group, 5 g/L aqueous solution topical daily (100 μL back, 10 μL ear)) was 76 times, the “mRNA level of TSLP” value (TSLP) was “significantly decreased in a dose-dependent manner” and the “H&E staining of ear and dorsal skin (epidermal hyperplasia, hyperkeratosis, inflammatory cell infiltration)” value (DNCB-induced AD mice [4]) was “maintained the skin structure integrity, alleviated skin lesions and protected skin tissues from damage”. The anticoagulant activity [5] was “has anticoagulant activity”, the “average number of mast cells” value [6, 12] was 26 and the “average number of mast cells” value [6, 13] was 32. For the same substance, the “mRNA level of IL-8” value (IL-8) was “significantly decreased in a dose-dependent manner”, the “dorsal skin inflammatory lesions (dryness, erythema, erosion, edema)” value (DNCB-induced AD mice [7]) was “effectively alleviated these symptoms” and the “average ear skin thickness” value (DNCB-induced AD mice [8]; [12]) was 0.33 mm. The “average dorsal skin thickness” value (DNCB-induced AD mice [8]; [12]) was 545 μm, the “average ear skin thickness” value (DNCB-induced AD mice [8]; [13]) was 0.375 mm and the “average dorsal skin thickness” value (DNCB-induced AD mice [8]; [13]) was 606 μm. For the same substance, the “mRNA expression of inflammatory cytokines (IL-4, IL-6, TNF-α)” value [9] was “significantly inhibit the elevation of inflammatory cytokines induced by TNF-α/IFN-γ”, the “average weight of the lymph nodes” value (DNCB-induced AD mice [10]; [12]) was 9.45 mg and the “average weight of the spleen” value (DNCB-induced AD mice [10]; [12]) was 165 mg. For the same substance, the “average weight of the lymph nodes” value (DNCB-induced AD mice [10]; [13]) was 10.3 mg, the “average weight of the spleen” value (DNCB-induced AD mice [10]; [13]) was 183 mg and the average level of IL-4 in serum (IL-4 [11]; [12]) was 201 pg/mL. It also gave an average level of IL-4 in serum (IL-4 [11]; [13]) of 232 pg/mL.

— patent US20260284100A1, “USE OF SULFATED GLUCO-GALACTOOLIGOSACCHARIDE IN PREPARATION OF DRUGS FOR TREATING ATOPIC DERMATITIS” (Nanjing University of Science and Technology, priority 2025, published 2026)
